Measurements reported in patent US20130344008A1, “NONCARIOUS MATERIAL AND ANTICARIOUS AGENT CONTAINING RARE SUGAR” (priority 2006, published 2013).

Key:
Format in all cases: cell-based, Streptococcus mutans
[1] = tested on: S. mutans strain (JCM5075); assay: Example 3: pH of S. mutans culture in BHI broth with test substance after 48-hour culturing; conditions: 10% test substance; for pH: BHI broth, after 48-hour culturing
Experimental: Allitol and D-sorbose were used to assay the actions thereof against S. mutans. Allitol and D-sorbose were supplied from the Rare Sugar Research Center, the National University Corporation Kagawa University. The S. mutans strain (JCM5075) was plated in a Brain Heart Infusion broth containing a 10% test substance, to measure the pH of the liquid culture after 48-hour culturing. As a control, 1% sucrose and 10% Xylitol were used.

[2] = tested on: S. mutans strain MT 8148 (JCM5175); assay: Example 2: bacterial growth (OD 660 nm) and pH of S. mutans culture in phenol red broth with 1% test substance; conditions: PRB broth, 37° C., 48 hours later; for OD: bacterial growth, absorbance at 660 nm
Experimental: D-Psicose and L-psicose were used to assay the actions thereof against S. mutans. D-Psicose and L-psicose were supplied from the Rare Sugar Research Center, the National University Corporation Kagawa University. The S. mutans strain MT 8148 (JCM5175) was plated in a Brain Heart Infusion broth supplemented with agar for culturing at 37° C. for 48 hours. The liquid culture was inoculated in a fresh Brain Heart Infusion broth, for culturing at 37° C. for 24 hours. The liquid culture was inoculated in a phenol red broth (PRB broth) containing a test substance at 1%, for culturing at 37° C.; the bacterial growth (absorbance at 660 nm: OD) and the pH were assayed 48 hours later. Asa control, glucose, fructose, sucrose and Xylitol were used. After culturing for a given period of time, additionally, the optical density of apart of the liquid culture was measured with an absorptiometer (OD 660 nm).

S. mutans strain JCM5075 = assay: Example 1: optical density and pH of S. mutans JCM5075 cultures in BHI broth with rare sugars, with or without sucrose; conditions: for pH change 24 hours later (in words): 1% sucrose, or 10% Xylitol+1% sucrose, or 10% fructose+1% sucrose; for pH change 24 hours later (in words) / suppression of the pH reduction: FIG. 3; for pH 0 hour later / pH 6 hours later / pH 8 hours later / pH 12 hours later / pH 24 hours later / Optical density (OD) 12 hours later / suppression of OD increase compared with no addition: BHI broth; for Optical density (OD) 12 hours later: OD600; for suppression of the pH reduction: also with 1% sucrose addition; for suppression of OD increase compared with no addition: FIG. 2 / Table 1
Description: S. mutans strains characteristically form insoluble glucan on addition of sucrose, to generate acids and reduce the pH of the culture medium, which is considered to cause decalcification of teeth on dental surface to form decayed teeth (the reason why the strains are designated bacteria causing decayed teeth). JCM 5075 of S. mutans strains and the Brain Heart Infusion (BHI) broth were used to assay the optical density (the increase of the number of the bacterial cells) and the pH change in individual rare sugar solutions with or without sucrose added. As the rare sugars, there were used D-fructose, L-fructose, D-sorbose, L-sorbose, D-psicose, L-psicose, D-tagatose and L-tagatose. The rare sugars used were supplied from the Rare Sugar Research Center, the National University Corporation Kagawa University.
The strain JCM5075 thawed from −80° C. stock was cultured for 48 hours, and was adjusted to OD 0.3. 100 μl of the resulting culture was added to each 2-ml portion of the BHI broths under individual conditions, to assay the optical density and the pH 24 hours later (observation with naked eyes and absorbance: OD600).
After collecting a part of the liquid culture and centrifuging the culture, the pH of the resulting supernatant was measured with a pH meter. The results are shown in Table 2 (0, 6, 8, 12 and 24 hours after the addition of the bacteria to the BHI broth) and FIG. 3.

[3] = 10% test substance + 1% sucrose

| SMILES | pH 0 hour later (S. mutans strain JCM5075; 5% test substance + 1% sucrose) | pH 6 hours later (S. mutans strain JCM5075; 5% test substance + 1% sucrose) | pH 8 hours later (S. mutans strain JCM5075; 5% test substance + 1% sucrose) | pH 12 hours later (S. mutans strain JCM5075; 5% test substance + 1% sucrose) | pH 24 hours later (S. mutans strain JCM5075; 5% test substance + 1% sucrose) | pH 0 hour later (S. mutans strain JCM5075; 5% test substance, no sucrose) | pH 6 hours later (S. mutans strain JCM5075; 5% test substance, no sucrose) | pH 8 hours later (S. mutans strain JCM5075; 5% test substance, no sucrose) | pH 12 hours later (S. mutans strain JCM5075; 5% test substance, no sucrose) | pH 24 hours later (S. mutans strain JCM5075; 5% test substance, no sucrose) | pH 0 hour later (S. mutans strain JCM5075; [3]) | pH 6 hours later (S. mutans strain JCM5075; [3]) | pH 8 hours later (S. mutans strain JCM5075; [3]) | pH 12 hours later (S. mutans strain JCM5075; [3]) | pH 24 hours later (S. mutans strain JCM5075; [3]) | Optical density (OD) 12 hours later (S. mutans strain JCM5075; 10% test substance) | pH 0 hour later (S. mutans strain JCM5075; 10% test substance, no sucrose) | pH 6 hours later (S. mutans strain JCM5075; 10% test substance, no sucrose) | pH 8 hours later (S. mutans strain JCM5075; 10% test substance, no sucrose) | pH 12 hours later (S. mutans strain JCM5075; 10% test substance, no sucrose) | also measured |
| --- | --- | --- | --- | --- | --- | --- | --- | --- | --- | --- | --- | --- | --- | --- | --- | --- | --- | --- | --- | --- | --- |
| OC[C@@H](O)[C@@H](O)[C@@H](O)[C@@H](O)CO [Allitol] |  |  |  |  |  |  |  |  |  |  |  |  |  |  |  |  |  |  |  |  | pH [1]: 5.6; pH ([1]; listed as allitol): ≥ 5.5 |
| O=C[C@H](O)[C@@H](O)[C@H](O)[C@H](O)CO [D-Glucose, reference compound] |  |  |  |  |  |  |  |  |  |  |  |  |  |  |  |  |  |  |  |  | pH [2]: 3.9; OD [2]: 0.26 |
| O=C(CO)[C@@H](O)[C@H](O)[C@H](O)CO [D-fructose, reference compound] | 7.4 | 7.2 | 7.2 | 7.2 | 5.0 | 7.4 | 7.2 | 7.2 | 7.2 | 4.7 | 7.3 | 7.2 | 7.2 | 7.2 | 5.1 | 0.114 | 7.3 | 7.2 | 7.2 | 7.2 | pH change 24 hours later (in words) (S. mutans strain JCM5075): highly inclined to acidity; pH 24 hours later (S. mutans strain JCM5075; 10% test substance, no sucrose): 6.5; precipitation of bacterial masses (insoluble glucan) under observation with naked eyes (S. mutans strain JCM5075; addition of 1% sucrose, addition of 10% D-fructose, 24 hours later): caused the precipitation of bacterial masses (insoluble glucan) |
| O=C(CO)[C@H](O)[C@@H](O)[C@H](O)CO [D-sorbose] | 7.3 | 7.2 | 7.2 | 7.2 | 5.0 | 7.4 | 7.2 | 7.2 | 7.2 | 5.5 | 7.3 | 7.2 | 7.2 | 7.2 | 6.9 | 0.102 | 7.3 | 7.2 | 7.2 | 7.2 | pH 24 hours later (S. mutans strain JCM5075; 10% test substance, no sucrose): 6.9; suppression of the pH reduction (S. mutans strain JCM5075; 24 hours later): pH reduction was suppressed; suppression of OD increase compared with no addition (S. mutans strain JCM5075): suppression of OD increase was observed; assimilability with the S. mutans strain ([1]; 48-hour culturing): low assimilability; pH [1]: 5.0 |
| O=C(CO)[C@@H](O)[C@@H](O)[C@H](O)CO [D-tagatose] | 7.3 | 7.2 | 7.2 | 7.2 | 6.9 | 7.3 | 7.2 | 7.2 | 7.2 | 7.0 | 7.1 | 7.0 | 7.0 | 7.0 | 6.9 | 0.132 | 7.1 | 7.0 | 7.0 | 7.0 | pH 24 hours later (S. mutans strain JCM5075; 10% test substance, no sucrose): 6.9; suppression of the pH reduction (S. mutans strain JCM5075; 24 hours later): pH reduction was suppressed; suppression of OD increase compared with no addition (S. mutans strain JCM5075): suppression of OD increase was observed |
| O=C(CO)[C@H](O)[C@@H](O)[C@@H](O)CO [L-fructose] | 7.3 | 7.2 | 7.2 | 7.2 | 5.0 | 7.4 | 7.2 | 7.2 | 7.2 | 4.7 | 7.3 | 7.2 | 7.2 | 7.2 | 6.7 | 0.037 | 7.3 | 7.2 | 7.2 | 7.2 | pH 24 hours later (S. mutans strain JCM5075; 10% test substance, no sucrose): 6.5; suppression of the pH reduction (S. mutans strain JCM5075; 24 hours later): pH reduction was suppressed; suppression of OD increase compared with no addition (S. mutans strain JCM5075): suppression of OD increase was observed; pH [2]: 4.0; OD [2]: 0.20 |
| O=C(CO)[C@@H](O)[C@@H](O)[C@@H](O)CO [L-psicose] | 7.3 | 7.2 | 7.2 | 7.2 | 6.2 | 7.3 | 7.2 | 7.2 | 7.2 | 6.8 | 7.2 | 7.1 | 7.0 | 7.0 | 6.9 | 0.067 | 7.2 | 7.1 | 7.0 | 7.0 | pH 24 hours later (S. mutans strain JCM5075; 10% test substance, no sucrose): 6.9; suppression of the pH reduction (S. mutans strain JCM5075; 24 hours later): pH reduction was suppressed; suppression of OD increase compared with no addition (S. mutans strain JCM5075): suppression of OD increase was observed; pH [2]: 5.9; OD [2]: 0.02 |
| O=C(CO)[C@@H](O)[C@H](O)[C@@H](O)CO [L-sorbose] | 7.4 | 7.2 | 7.2 | 7.2 | 5.3 | 7.4 | 7.2 | 7.2 | 7.2 | 5.9 | 7.3 | 7.2 | 7.2 | 7.2 | 6.4 | 0.463 | 7.3 | 7.2 | 7.2 | 7.2 | pH 24 hours later (S. mutans strain JCM5075; 10% test substance, no sucrose): 7.1 |
| O=C(CO)[C@H](O)[C@H](O)[C@@H](O)CO [L-tagatose] | 7.3 | 7.2 | 7.2 | 7.2 | 6.0 | 7.3 | 7.2 | 7.2 | 7.2 | 6.6 | 7.1 | 7.0 | 6.9 | 6.9 | 6.8 | 0.026 | 7.1 | 7.0 | 6.9 | 6.9 | pH 24 hours later (S. mutans strain JCM5075; 10% test substance, no sucrose): 6.8; suppression of the pH reduction (S. mutans strain JCM5075; 24 hours later): pH reduction was suppressed; suppression of OD increase compared with no addition (S. mutans strain JCM5075): suppression of OD increase was observed |
| OC[C@@H](O)[C@H](O)[C@@H](O)CO [Xylitol, reference compound] | 7.3 | 7.2 | 7.2 | 7.1 | 4.9 | 7.3 | 7.2 | 7.2 | 7.2 | 6.4 | 7.3 | 7.2 | 7.2 | 7.2 | 5.1 | 0.046 | 7.4 | 7.2 | 7.2 | 7.2 | pH change 24 hours later (in words) (S. mutans strain JCM5075): highly inclined to acidity; pH 24 hours later (S. mutans strain JCM5075; 10% test substance, no sucrose): 6.5; pH [1]: 6.0 |
